Earlier results on 1 compound are cited in patent USRE41289E1, “Ultrashort acting hypnotic barbiturates” (ARYx Therapeutics, Inc., priority 2000, dated 2010).

For this data set the following is noted: in vivo.

As to `CN1C(=O)NC(=O)C(C)(C2=CCCCC2)C1=O` (stereo not shown) [hexobarbital], the half-life of elimination is 2.7 to 7 h.
